Measurements taken from US4089946A, “Claudogenic-interceptive nonapeptides” (American Home Products Corporation, priority 1976, dated 1978).

How the values were obtained:
[1] = test system: Proestrous female Sprague-Dawley rats (ovulation, ova in fallopian tubes); assay: Ovulation induction in Nembutal-blocked proestrous rats; format: in vivo, rat
Protocol: The ovulation-induction properties of the nonapeptides of this invention was determined with the preferred compound, [D-Trp^6,(N-methyl)Leu^7,des-Gly-NH2^10,Pro-ethylamide]LRH as follows: Proestrous female Sprague-Dawley rats were injected intraperitoneally with a hypnotic dose of Nembutal® (50 mg/kg) at 1:30 PM. Between 1:40 and 1:50 PM the rats received the test material via the jugular vein. The following morning the animals were sacraficed and the fallopian tubes examined for ova under a dissecting microscope. […] Thus, in its ovulation induction, the preferred compound of this invention is about ten times as active as its closest structural analogues.

[2] = test system: Mature, female, Sprague-Dawley rats (pregnancy: uterine implantation sites and fetuses); assay: Anti-gravidity (claudogenic/interceptive, post-coital) evaluation in pregnant rats; format: in vivo, rat
Excerpt: The procedure followed in evaluating the anti-gravidity properties of the nonapeptides of this invention was as follows: Mature, female, Sprague-Dawley rats (350 + 30 grams body weight) maintained on a 14:10 light:dark schedule were caged with fertile male rats on the evening of proestrus. The presence of vaginal sperm the next morning was considered day 1 of pregnancy. The nonapeptide ethylamine produced in the following examples, representative of the entire group of compounds of this invention, was administered subcutaneously in a corn oil vehicle on days 1-7, or 7-12 of pregnancy at a rate of as low as 1 μg/rat/day. One-half the daily dose was administered at 9 A.M. and at 3 P.M. each day. The recipients of day 1-7 treatment were autopsied on day 14. The recipients of day 7-12 treatment were autopsied on day 18 of pregnancy. The effectiveness of the ethylamide and its effective dose was established by the absence of uterine implantation sites and fetuses. The presence of at least one normal fetus was considered to be the criterion for pregnancy. […]

Compound | rats showing ovulation inducing activity ([1]; 0.1 mg per rat via the jugular vein) [%] | ovulation induction activity relative to closest structural analogues ([1]; rat, in vivo) | effectiveness of treatment (absence of uterine implantation sites and fetuses) ([2]; 1 microgram per rat per day subcutaneously in corn oil, day 1-7 of pregnancy, five rat sample, autopsy day 14) [%] | effectiveness of treatment (absence of uterine implantation sites and fetuses) ([2]; 10 micrograms per rat per day subcutaneously in corn oil, day 7-12 of pregnancy, autopsy day 18) [%] | dose required to obtain 100 percent ovulation ([1]; via the jugular vein)
CCNC(=O)[C@@H]1CCCN1C(=O)[C@H](CCCNC(=N)N)NC(=O)[C@H](CC(C)C)N(C)C(=O)[C@@H](Cc1c[nH]c2ccccc12)NC(=O)[C@H](Cc1ccc(O)cc1)NC(=O)[C@H](CO)NC(=O)[C@H](Cc1c[nH]c2ccccc12)NC(=O)[C@H](Cc1c[nH]cn1)NC(=O)[C@@H]1CCC(=O)N1 [L-pyroglutamyl-L-histidyl-L-tryptophyl-L-seryl-L-tyrosyl-D-tryptophyl-N-methyl-L-leucyl-L-arginyl-L-prolinethylamide] | 100 | about ten | 100 | 100 | –
LRH: LRH itself, the parent hormone used as comparison for ovulation induction (QHWSYGLRPG; Gonadoliberin-1; UniProt P01148 24-33, looked up) [reference compound] | – | – | – | – | about 3 mg per rat
